Converted amounts (≈) assume the structure as drawn. Read-outs that look alike come from different tables or passages of the source.
Experiments:
[1] = test system: Staphylococcus aureus MSSA CIP 4.83; experiment: Antibacterial activity (MIC/MBC); format: cell-based; settings: for MBC: read-out: MBC
[2] = Stability in solution at pH 1 (HPLC purity over time); format: physicochemical; settings: for Purity of the hybrid molecules (as a percentage) as a function of time (hours): pH 1, 37° C.
Protocol: The stability of the aminoquinoline-cephalosporin_hybrid molecules given as examples was determined in solution at 37° C., at physiological pH (pH 7, phosphate buffer/acetonitrile, 75/25 v/v) and at acidic pH (pH 1, 0.1 M HCl/ethanol, 70/30 v/v) by high pressure liquid chromatography coupled to a UV-visible detector (Beckman Coulter ODS C18 column, 5 μm, 4.6×250 mm; eluents: A: 0.1% TFA, B: CH3CN/H2O 90/10 0.1% TFA, gradient: from 10% to 100% of B in 30 minutes, and then 100% of B for 10 minutes, flow rate 1 mL/minutes, λ=254 nm, volume injected: 10 μL).

[3] = test system: S. pneumoniae PRSP CIP 104471; experiment: Antibacterial activity (MIC/MBC); format: cell-based, Streptococcus pneumoniae; settings: Streptococcus pneumoniae; for MIC: read-out: MIC
[4] = test system: S. pneumoniae PRSP clinical isolate; experiment: Antibacterial activity (MIC/MBC); format: cell-based, Streptococcus pneumoniae; settings: Streptococcus pneumoniae; for MIC: PRSP
[5] = test system: S. pneumoniae PSSP CIP 6.92; experiment: Antibacterial activity (MIC/MBC); format: cell-based; settings: Streptococcus pneumoniae, CIP6
H. influenzae CIP 102514 = experiment: Antibacterial activity (MIC/MBC); format: cell-based, Haemophilus influenzae; settings: Haemophilus influenzae, CIP102514
[6] = test system: E. faecalis VRE CIP 104676; experiment: Antibacterial activity (MIC/MBC); format: cell-based, Enterococcus faecalis; settings: Enterococcus faecalis, E. faecalis VRE CIP 104676
[7] = test system: two strains of penicillin-resistant Streptococcus pneumoniae PRSP (CIP 104471 and a clinical isolate); experiment: Antibacterial activity (MIC/MBC), summary in text; format: cell-based; settings: S. pneumoniae PRSP (CIP 104471 and a clinical isolate)
S. pyogenes CIP 56.41T = experiment: Antibacterial activity (MIC/MBC); format: cell-based, Streptococcus pyogenes; settings: Streptococcus pyogenes, CIP56, S. pyogenes CIP 56.41T; for MIC: read-out: MIC
[8] = test system: Staphylococcus aureus MSSA 53.154; experiment: Murine experimental septicaemia, in vivo efficacy; set-up: species or system mice; settings: sc, mice, subcutaneously at 1 and 6 h post infection, survival on day 9, hybrid molecules formulated in water as their sodium salt, read-out: ED50
Protocol: Experimental septicaemia was induced in mice as follows. Briefly, male Swiss OF1 mice (IFFA CREDO-Charles River) weighing 18 to 20 grams were infected intraperitoneally with 0.5 mL of a bacterial suspension containing 8.5×10^7 cfu of Staphylococcus aureus MSSA 53.154 (Institut Pasteur). The hybrid molecules were administered subcutaneously at 1 and 6 h post infection. Control and treatment groups at each dose were composed of seven mice. All the infected but untreated control mice died within 9 days. The 50% effective dose (ED50) values were calculated by a computerized program (GraphPad) from the survival rates on day 9 after infection.

M. catarrhalis CIP73.21T = experiment: Antibacterial activity (MIC/MBC); format: cell-based; settings: Moraxella catarrhalis
Oral toxicity in mice = format: in vivo; settings: counted on day 30
Protocol: The test compound: PA 1046 (example 5) was emulsified in a mixture of Tween 80/methylcellulose in water (0.5% of Tween 80, 0.6% of methylcellulose and 98.9% of water) at different concentrations. The emulsion was administered orally to 6-week-old female Swiss CD1 mice (Janvier) on day 0 and on day 2. The number of survival mice was counted on day 30.

[9] = test system: Human lung fibroblast cells (ATCC CCL-171); experiment: Cytotoxicity (MTT) assay; settings: human, 18 hr
Protocol: Cellular toxicity was measured by a colorimetric assay that makes use of the tetrazolium salt, MTT. Human lung fibroblast cells (ATCC CCL-171) were plated in 96-well plates at 10^4 cells per well and incubated under 5% CO2 at 37° C. for 24 hr to allow adherence of cells to the plate. Test compounds were prepared as a stock solution at 1 mg/mL in 1% DMSO/water and diluted with water for the serial dilutions (500-7.8 μg/mL). Cells underwent a 18 hr treatment under 5% CO2 at 37° C. with experimental drugs. Corresponding controls received either no drug treatment or treatment with SDS (sodium dodecyl sulfate). The optical density of each sample was read on a microplate spectrophotometer reader at 600 nm and cell survival was expressed as a fraction of that of untreated controls. A drug is said cytotoxic when this fraction is ≦−30%

[10] = S. aureus CIP 4.83, without serum (Table VI)
[11] = Staphylococcus aureus, S. aureus CIP 4.83, +50% human serum, read-out: MIC in the presence of human serum
[12] = Staphylococcus aureus, S. aureus MSSA CIP 4.83
[13] = Staphylococcus aureus, S. aureus MSSA CIP 4.83, read-out: MIC
[14] = +50% human serum, read-out: MIC in the presence of human serum
[15] = without serum (Table VI), read-out: MIC

Molecule `CO/N=C(\C(=O)N[C@@H]1C(=O)N2C(C(=O)O)=C(CSc3nc(=O)c(=O)[nH]n3C)CS[C@H]12)c1csc(N)n1` [Ceftriaxone, reference compound] has an MIC [1, 10] of 0.20 mg/L (≈ 0.361 µM), an MIC [1, 11] of 25 mg/L and an MBC [1, 12] greater than 50 mg/L. The MIC [1, 13] was 0.2 mg/L (≈ 0.361 µM), the half-life ([2]; 0.1 M HCl/ethanol solution, pH 1 in solution at 37° C.) was less than 2 h and the “Purity of the hybrid molecules (as a percentage) as a function of time (hours)” value ([2]; time 0 h) was 100%. For the same molecule, the “Purity of the hybrid molecules (as a percentage) as a function of time (hours)” value ([2]; time 1 h) was 67%, the “Purity of the hybrid molecules (as a percentage) as a function of time (hours)” value ([2]; time 2 h) was 46% and the “Purity of the hybrid molecules (as a percentage) as a function of time (hours)” value ([2]; time 4 h) was 21%. The “Purity of the hybrid molecules (as a percentage) as a function of time (hours)” value ([2]; time 6 h) was 4%, the “time until practically totally degraded” value ([2]; pH 1 in solution at 37° C.) was “less than 6 hr” and the MBC [3] was 0.39 mg/L (≈ 0.703 µM). The MIC [3] was 0.05 mg/L (≈ 0.0902 µM), the MBC [4] was 0.78 mg/L (≈ 1.41 µM) and the MIC [4, 14] was 12.5 mg/L. The MIC ([4]; read-out: MIC) was 0.39 mg/L (≈ 0.703 µM), the MIC [4, 15] was 0.78 mg/L (≈ 1.41 µM) and the MBC [5] was 0.006 mg/L (≈ 0.0108 µM). For the same molecule, the MIC [5] was 0.006 mg/L (≈ 0.0108 µM), the MBC (H. influenzae CIP 102514; H. influenzae CIP 102514, read-out: MBC) was 1.56 mg/L (≈ 2.81 µM) and the MIC (H. influenzae CIP 102514; H. influenzae CIP 102514, read-out: MIC) was less than 0.001 mg/L. For the same molecule, the MBC [6] was 50 mg/L (≈ 90.2 µM), the MIC ([6]; read-out: MIC) was 1.56 mg/L (≈ 2.81 µM) and the MIC [7] was 0.05 mg/L (≈ 0.0902 µM). It also gave an MBC (S. pyogenes CIP 56.41T) of 0.006 mg/L (≈ 0.0108 µM), an MIC (S. pyogenes CIP 56.41T) of 0.006 mg/L (≈ 0.0108 µM) and an ED50 [8] of 0.09 mg/kg. The MBC (M. catarrhalis CIP73.21T) was 0.0015 mg/L (≈ 0.0027 µM) and the MIC (M. catarrhalis CIP73.21T) was less than 0.01 mg/L.

`CC(=O)OCC1=C(C(=O)O)N2C(=O)[C@@H](NC(=O)CNc3ccnc4cc(Cl)ccc34)[C@H]2SC1` [PA 1046, (6R,7R)-3-Acetoxymethyl-7-[2-(7-chloroquinolin-4-ylamino)-acetylamino]-8-oxo-5-thia-1-aza-bicyclo[4.2.0]oct-2-ene-2-carboxylic acid] gave an MIC [1, 10] of 0.2 mg/L (≈ 0.407 µM), an MIC [1, 11] of 0.78 mg/L and an MBC [1, 12] greater than 50 mg/L. For the same molecule, the MIC [1, 13] was 0.2 mg/L (≈ 0.407 µM), the “Survival (%)” value (Oral toxicity in mice; 100 mg/kg orally on day 0 and day 2, mice) was 5/5 (100%) and the “Survival (%)” value (Oral toxicity in mice; 200 mg/kg orally on day 0 and day 2, mice) was 5/5 (100%). It also gave an MBC [3] of 0.025 mg/L (≈ 0.0509 µM), an MIC [3] of 0.006 mg/L (≈ 0.0122 µM) and an MBC [4] of 0.1 mg/L (≈ 0.204 µM). The MIC [4, 14] was 1.56 mg/L, the MIC ([4]; read-out: MIC) was 0.05 mg/L (≈ 0.102 µM) and the MIC [4, 15] was 0.2 mg/L (≈ 0.407 µM). It also gave an MBC [5] of 0.012 mg/L (≈ 0.0244 µM), an MIC [5] of 0.012 mg/L (≈ 0.0244 µM) and an MBC (H. influenzae CIP 102514) of 25 mg/L (≈ 50.9 µM). It also gave an MBC [6] of 50 mg/L (≈ 102 µM), an MBC (S. pyogenes CIP 56.41T) of 0.003 mg/L (≈ 0.00611 µM) and an MIC (S. pyogenes CIP 56.41T) of 0.003 mg/L (≈ 0.00611 µM). The ED50 [8] was 0.04 mg/kg, the MBC (M. catarrhalis CIP73.21T) was 0.78 mg/L (≈ 1.59 µM) and the MIC (M. catarrhalis CIP73.21T) was 0.78 mg/L (≈ 1.59 µM). For the same molecule, the “% of survival cells compared to the untreated controls” value (from here on “% of survival cells”) ([9]; 7.8 μg/mL) was −5.6%, the “% of survival cells” value ([9]; 15.6 μg/mL) was −8.3% and the “% of survival cells” value ([9]; 31.2 μg/mL) was −5.6%. The “% of survival cells” value ([9]; 62.5 μg/mL) was −9.0%, the “% of survival cells” value ([9]; 125 μg/mL) was −14.1% and the “% of survival cells” value ([9]; 250 μg/mL) was −17.8%. For the same molecule, the “% of survival cells” value ([9]; 500 μg/mL) was −18.1%.
